Test results as given in patent US20240318141A1, “MATURATION AGENT” (Orizuru Therapeutics, Inc., priority 2021, published 2024).
Values joined by “and” are separate entries in the source; they are usually repeats but may differ in a detail not shown here. Equal entries are not always repeated.

Columns and labels:
[1] = tested on: non-endocrine cells in insulin-producing cell population (QHJI-I14s04 iPS cell line); experiment: Cisplatin or docetaxel treatment in step 6), then extended culture in basal medium containing EGF (Example 2); format: cell-based, human
Excerpt: The differentiation of a QHJI-I14s04 iPS cell line into an insulin-producing cell population was induced by the three-dimensional culture method using a bioreactor according to steps 1) to 6) described above and the previous report (Nature Biotechnology 2014; 32: 1121-1133). Specifically, the iPS cells were subjected to the first culture in a medium (DMEM/1% B-27 (INS+)/Penicillin Streptomycin/dimethyl sulfoxide) containing differentiation-inducing factors (GSK3β inhibitor, ROCK inhibitor and low dose of activin A) under conditions causing action of insulin, and subsequently subjected to the second culture in a medium (DMEM/1% B-27 (INS−)/Penicillin Streptomycin/dimethyl sulfoxide) containing a differentiation-inducing factor (low dose of activin A) under conditions causing no action of insulin to obtain a definitive endoderm cell population. Further, a pancreatic endocrine progenitor cell population obtained by the induction of differentiation from the definitive endoderm cell population was cultured in a medium (Improved MEM/1% B-27 (INS+)/Penicillin Streptomycin) containing differentiation-inducing factors (ALK5 inhibitor II, T3, LDN, Y-secretase inhibitor RO, and ascorbic acid) and FGF receptor 1 inhibitor (PD-166866) to obtain an insulin-producing cell population.
An insulin-producing cell population obtained without the addition of cisplatin and docetaxel was used as a control cell population and subjected to extended culture in the same manner as above.
Marker protein expression (PDX1, CHGA, and Ki67) in each insulin-producing cell population before the start of and after the completion of extended culture was measured by flow cytometry. Samples after the completion of extended culture were collected by sampling three times from the same culture container. The number of cells was measured in an automatic cell counter at the time of sample preparation for flow cytometry, and the total number of cells per mL of the bioreactor was calculated. The number of CHGA-positive cells, the number of PDX1-positive and CHGA-negative cells, and the number of PDX1-negative and CHGA-negative cells were calculated from the obtained total number of cells and the flow cytometry results.

[2] = tested on: insulin-producing cell population (QHJI-114s04 iPS cell line); details: induction of differentiation using medium supplemented with FGF receptor 1 inhibitor; see WO2019/208505; cited from earlier work
[3] = tested on: non-endocrine cells in insulin-producing cell population (Ff-I14s04 iPS cell line); experiment: Extended culture of insulin-producing cell population in basal medium containing EGF (Example 1); format: cell-based, human
Excerpt: The differentiation of a Ff-I14s04 iPS cell line into an insulin-producing cell population was induced by the three-dimensional culture method using a bioreactor and a multiwell plate according to steps 1) to 6) described above and the previous report (Nature Biotechnology 2014; 32: 1121-1133). Specifically, the iPS cells were subjected to the first culture in a medium (DMEM/1% B-27 (INS+)/Penicillin Streptomycin/dimethyl sulfoxide) containing differentiation-inducing factors (GSK3β inhibitor, ROCK inhibitor and low dose of activin A) under conditions causing action of insulin, and subsequently subjected to the second culture in a medium (DMEM/1% B-27 (INS−)/Penicillin Streptomycin/dimethyl sulfoxide) containing a differentiation-inducing factor (low dose of activin A) under conditions causing no action of insulin to obtain a definitive endoderm cell population. Further, a pancreatic endocrine progenitor cell population obtained by the induction of differentiation from the definitive endoderm cell population was cultured in a medium (Improved MEM/1% B-27 (INS+)/Penicillin Streptomycin) containing differentiation-inducing factors (ALK5 inhibitor II, T3, LDN, γ-secretase inhibitor RO, and ascorbic acid) and FGF receptor 1 inhibitor (PD-166866) to obtain an insulin-producing cell population. The exchange from the bioreactor to the multiwell plate was carried out in step 6).
The insulin-producing cell population was subjected to extended culture for 4 weeks in a basal medium (MCDB131/20 mM Glucose/NaHCO3/FAF-BSA/ITS-X/Glutamax/Penicillin Streptomycin). EGF, when added for the purpose of promoting the proliferation of unintended cells, was added at 50 ng/ml (final concentration) to the basal medium for culture.
Marker protein expression (PDX1 and CHGA) in the insulin-producing cell population before the start of and after the completion of extended culture was measured by flow cytometry. Respective samples were collected by sampling from separate culture containers. The number of cells was measured in an automatic cell counter at the time of sample preparation for flow cytometry, and the total number of cells per well of the multiwell plate was calculated. The number of CHGA-positive cells, the number of PDX1-positive and CHGA-negative cells, and the number of PDX1-negative and CHGA-negative cells were calculated from the obtained total number of cells and the flow cytometry results.

[4] = after extended culture 4 weeks, EGF present, average of three samplings
[5] = after extended culture 4 weeks, EGF present, single samplings
[6] = after extended culture involving EGF, with respect to control cell population
[7] = s6d11 (before extended culture); 3 μM cisplatin or 1 μM docetaxel for 7 days from day 4 of step 6)
[8] = after extended culture 4 weeks, EGF present (50 ng/ml)
[9] = extended culture in basal medium containing EGF

N.N.[Cl][Pt][Cl] [Cisplatin, cisplatin]
The number of cells CHGA+, average [1, 4]: 23 ×10^4 cells/mL | The number of cells PDX+/CHGA−, average [1, 4]: 97 ×10^4 cells/mL | The number of cells PDX−/CHGA−, average [1, 4]: 5.4 ×10^4 cells/mL | Total number of cells, average [1, 4]: 125 ×10^4 cells/mL | The number of cells CHGA+ [1, 5]: 24 ×10^4 cells/mL and 21 ×10^4 cells/mL | The number of cells PDX+/CHGA− [1, 5]: 97 ×10^4 cells/mL and 84 ×10^4 cells/mL and 110 ×10^4 cells/mL | The number of cells PDX−/CHGA− [1, 5]: 4.5 ×10^4 cells/mL and 4.4 ×10^4 cells/mL and 7.2 ×10^4 cells/mL | Total number of cells [1, 5]: 125 ×10^4 cells/mL and 109 ×10^4 cells/mL and 141 ×10^4 cells/mL | proportion of PDX1-negative and CHGA-negative (PDX1−/CHGA−) cells [1, 6]: drastically decreased | proportion of PDX1-positive and CHGA-negative (PDX1+/CHGA−) cells [1, 6]: no large change | total number of cells after extended culture (in words) ([1]; extended culture involving EGF): increased | The number of cells CHGA+ [1, 7]: 88 ×10^4 cells/mL | The number of cells PDX+/CHGA− [1, 7]: 2.7 ×10^4 cells/mL | The number of cells PDX−/CHGA− [1, 7]: 0.3 ×10^4 cells/mL | Total number of cells [1, 7]: 91 ×10^4 cells/mL | number of CHGA-positive endocrine cells after extended culture (in words) ([1]; with respect to control cell population): not changed

COc1cc(OC)cc(-c2cc3cnc(N)nc3nc2NC(=O)NC(C)(C)C)c1 [PD-166866, 1-[2-amino-6-(3,5-dimethoxyphenyl)-pyrido(2,3-d)pyrimidin-7-yl]-3-tert-butylurea]
abundance of CHGA-negative and Ki67-positive (CHGA−/Ki67+) cells (in words) [2]: drastically reduced

EGF: epidermal growth factor added at 50 ng/ml to basal medium to promote proliferation of unintended cells
The number of cells CHGA+ [3, 8]: 128 ×10^4 cells/well and 123 ×10^4 cells/well | The number of cells PDX+/CHGA− [3, 8]: 27 ×10^4 cells/well and 32 ×10^4 cells/well | Total number of cells [3, 8]: 198 ×10^4 cells/well and 222 ×10^4 cells/well and 281 ×10^4 cells/well | number of CHGA-positive endocrine cells (in words) [3, 9]: no large change | proportions of PDX1+/CHGA− and PDX1−/CHGA− non-endocrine cells [3, 9]: markedly increased | total number of cells after extended culture (in words) [3, 9]: increased
